From patent US10722575B2, “Use of 1,3-diphenylprop-2-en-1-one derivatives for treating liver disorders” (GENFIT, priority 2009, dated 2020)

Key:
[1] = system: patients suffering from impaired fasting glucose, impaired glucose tolerance and abdominal obesity; assay: Second pilot double-blind placebo-controlled randomized study, Cpd 29 80 mg/day, 28 days; format: in vivo, human; conditions: 80 mg/day oral
Experimental: 1-[4-methylthiophenyl]-3-[3,5-dimethyl-4-carboxydimethylmethyloxyphenyl]prop-2-en-1-one (Cpd 29 of WO 2004/005233) has been formulated as hard shell capsules containing 5, 10 or 20 mg of the compound. The compound (80 mg) was administered orally once daily for 28 days. The study has been performed in two parallel groups in double-blind conditions: placebo or Cpd 29 of WO 2004/005233.
The tolerability and safety of once-a-day administrations, as well as the efficacy in improving plasma lipids and glucose homeostasis compared with placebo, were evaluated in two pilot trials using relevant biochemical parameters. The data were used to calculate the percentage of change due to the compound when compared to the placebo after 28 days of treatment.
A second pilot, double-blind, placebo controlled, randomized study has been performed in patients suffering from impaired fasting glucose, impaired glucose tolerance and abdominal obesity for assessing the tolerability and safety of once-a-day administrations of oral doses of Cpd 29 of WO 2004/005233 (at the dose of 80 mg/day), as well as the efficacy on glucose and lipid metabolism.

hApoE2 KI mice [2] = assay: hApoE2 KI mice on Western diet, 12 weeks, hepatic gene expression by quantitative RT-PCR; format: in vivo; conditions: 12 weeks in Western diet, Cpd 29 0.3 mg/kg/day
Experimental: The compounds of the General Formula (I) were tested in vivo in a high fat diet mice model. Dyslipidemic “humanized” ApoE2 knock-in mice (hApoE2 KI) were fed a Western diet and treated during 12 weeks. The compounds of interest, including the Compound 29 of WO 2004/005233 at 0.3 mg/kg/day and the Fenofibrate at 100 mg/kg/day (used as a reference compound) were incorporated into the diet. At the end of the protocol, animals were sacrificed, livers were harvested and the hepatic expression of genes that are known to be implicated in the liver inflammation and the fibrosis processes were evaluated by quantitative RT-PCR (Panels A-D). Statistical analysis was performed as indicated for FIG. 1.
Female hApoE2 knock-in (KI) transgenic mice (Sullivan et al., 1998)(4 weeks of age). Mice were kept on a 12-hour light/dark cycle at a constant temperature of 20±3° C. After a 1 week acclimation, mice were separated in groups of 7-10 animals selected such as the distribution of their body weight and plasmatic lipid levels determined before the experiment were uniform. Animals were fed a Western diet (20% saturated fat and 0.2% cholesterol, Harlan Teklad TD88137) at weaning and during 12 weeks. Compounds of interest (Cpd 29 at 0.3 mg/kg/day and Fenofibrate at 100 mg/kg/day) were incorporated in the Western diet (SAFE, Augy, France) and administrated to mice during 12 weeks. Control animals received Western diet only. Animals had access to food and water ad libitum.
(§1) At the end of the studies, the animals were weighed and sacrificed under anesthesia. Blood was collected from the retro-orbital sinus; plasma was obtained by centrifugation (4 000 rpm, at 4° C. for 15 min) and subsequently frozen and stored at −20° C. Tissues and livers were isolated and snap-frozen in liquid nitrogen and stored at −80° C. for subsequent analysis (gene expression and biochemistry) or fixed in 4% paraformaldehyde for histology.
Total RNA was isolated from frozen livers using the NucleoSpin® 96 RNA kit (Macherey Nagel), according to the manufacturer's instructions. Reverse transcription was performed on 1 μg of total RNA by action of 1 μl of MMLV-RT enzyme (Invitrogen) during 1 hour at 37° C. in a total volume of 30 μl. […] Quantitative PCR was then carried out using the MyiQ Single-Color Real-Time PCR Detection System (Biorad). […]
The quantity of fluorescence emitted is directly proportional to the quantity of complementary DNA present at the start of the reaction and amplified during the PCR. The relative levels of expression were determined using the standard curve for each transcript. […] The induction factor, i.e. the ratio between the relative signal induced by the compound according to the invention and the average of the values relating to the control group, was then calculated for each sample. […]

hApoE2 KI mice [3] = assay: hApoE2 KI mice on Western diet, 2 weeks, histological scores of liver steatosis and intralobular inflammation; format: in vivo; conditions: 30 mg/kg/day
Experimental: Animals were fed a Western diet (20% saturated fat and 0.2% cholesterol, Harlan Teklad TD88137) during 2 weeks in the first study, that involved the daily administration of Cpd 29 (at 30 mg/kg/day by oral gavage), and during 6 weeks in the second study, that involved the daily administration of Compound 1 of WO 2007147879 (Cpd1, at 30 mg/kg/day by oral gavage). Control animals were treated with vehicle only (Carboxymethlycellulose 1%+Tween-80 0.1%). Animals had access to food and water ad libitum.
as §1
Formalin-fixed liver tissue was processed, and 5-μm-thick paraffin sections were stained with Hematoxylin and Eosin. The histological analysis of stained liver sections was carried out in blind conditions to quantify liver steatosis and liver intralobular inflammation. Liver steatosis was scored from 0 to 3 as follows: 0 (very slightly affected), 1 (slightly affected), 2 (moderately affected), 3 (highly affected). Liver intralobular inflammation was also scored depending on the number of inflammatory foci counted by field of observation as follows: 0 (<1 focus/field), 1 (1 to 2 foci/field), 2 (2 to 4 foci/field) 3 (more than 4 foci/field).
Exemplary compounds of the General Formula (I) were tested in vivo in a high fat diet mice model. hApoE2 KI and hApoE2 KI/PPARalpha KO (“humanized” ApoE2 knock-in mice deficient for the mPPARalpha gene) were fed a Western diet and daily treated with the Cpd 29 at 30 mg/kg/day during 2 weeks. At the end of the protocol, liver steatosis and intra-lobular inflammation were evaluated in the control and treated mice by means of histological analysis and specific scores.

Substance: 1-[4-methylthiophenyl]-3-[3,5-dimethyl-4-carboxydimethylmethyloxyphenyl]prop-2-en-1-one [Cpd 29]
- LDL-C [1]: reduced
- plasma triglycerides, change relative to placebo ([1]; p<0.001): −25%
- HDL-C, change relative to placebo ([1]; p<0.01): +9%
- fasting insulinemia, change relative to placebo ([1]; p<0.01): −25%
- insulin resistance index, HOMA-IR, change relative to placebo ([1]; p<0.01): −31%
- liver acute phase inflammation marker haptoglobin ([1]; p<0.01): reduction
- reduction of Gamma Glutamyl transpeptidase level ([1]; p<0.01): 15%
- fasting plasma glucose, change relative to placebo ([1]; p<0.05): −5%
- hepatic expression of Col1a1 (collagen genes) (hApoE2 KI mice [2]; Fenofibrate 100 mg/kg/day, FIG. 3D): statistically significant inhibition
- hepatic expression of TNFα (hApoE2 KI mice [2]; FIG. 3A): inhibited
- hepatic expression of CCL5 (hApoE2 KI mice [2]; FIG. 3B): inhibited
- hepatic expression of TGFβ (hApoE2 KI mice [2]; FIG. 3C): inhibited
- development of liver inflammation induced by the diet (hApoE2 KI mice [3]; hApoE2 KI mice, Western diet): inhibits
- development of liver steatosis induced by the diet (hApoE2 KI mice [3]; hApoE2 KI mice, Western diet): inhibits
- Liver Inflammation (score) 0 (hApoE2 KI mice [3]; share of group with score 0 (<1 focus/field), hApoE2 KI): 100%
- Liver Steatosis (score) 0 (hApoE2 KI mice [3]; share of group with score 0 (very slightly affected), hApoE2 KI): 83%
- Liver Inflammation (score) 1 (hApoE2 KI mice [3]; share of group with score 1 (1 to 2 foci/field), hApoE2 KI): 0%
- Liver Steatosis (score) 1 (hApoE2 KI mice [3]; share of group with score 1 (slightly affected), hApoE2 KI): 17%
- Liver Inflammation (score) 2 (hApoE2 KI mice [3]; share of group with score 2 (2 to 4 foci/field), hApoE2 KI): 0%
- Liver Steatosis (score) 2 (hApoE2 KI mice [3]; share of group with score 2 (moderately affected), hApoE2 KI): 0%
- Liver Steatosis (score) 3 (hApoE2 KI mice [3]; share of group with score 3 (highly affected), hApoE2 KI): 0%
- Liver Inflammation (score) 3 (hApoE2 KI mice [3]; share of group with score 3 (more than 4 foci/field), hApoE2 KI): 0%
